# Experiments:
# [1] = test system: GP2D (KRAS G12D) cells; test: 2D cell viability assay (CellTiter-Glo); format: cell-based; conditions: 96 h; GP2D cells, 4 days, CellTiter-Glo luminescence; read-out: G12D 2D EC50
# In short: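 Viability was read by CellTiter-Glo after 4 days at 37 °C of 2D culture of KRAS G12D GP2D cells (1000/well, RPMI, 10% FBS) on pre-spotted threefold compound dilutions. EC50 was fitted with a sigmoidal dose-response model as the point of half-maximal luminescence loss.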
# [2] = Rat oral pharmacokinetics; parameters: species or system Male Sprague Dawley rats; conditions: male, Sprague Dawley, in vivo
# Experimental: Rat Oral Pharmacokinetics
# Test compounds were formulated in solution formulations (10 w/v % Sulfobutylether-p-cyclodextrin; 90% w/v % 50 mM Citrate Buffer) and administered orally to a group of three Male Sprague Dawley rats. The animals were fasted overnight prior to dose administration and up to four hours after dosing. The test articles were administrated by oral gavage at a dose volume of 5 mL-eq/kg.
# Blood samples were collected at predose and 0.25, 0.5, 1, 2, 4, 6, 8, 12, 24, 48 and 72 hours post dose into K2EDTA tubes and stored on wet ice until processed. Whole blood was processed to plasma by centrifugation (3500 rpm for 10 minutes at 5° C.) within 30 minutes of collection. Plasma samples were placed in Micronic 96 well tubes and stored at −80° C. until transferred. Plasma concentration of the test compounds was determined by LC-MS/MS. Pharmacokinetic parameters were estimated using non-compartment model analysis. The maximum observed concentration (Cmax) and area under the curve from time of dosing to last measured concentration (AUClast) were calculated and reported.
smiles,measurement,setting,value
"C#Cc1c(F)ccc2cc(N)cc(-c3nc4c5c(nc(OC[C@@]67CCCN6C[C@H](F)C7)nc5c3F)N3C[C@H]5CC[C@@H]([C@H]3CCC4)N5Cc3oc(=O)oc3CCC)c12 [Example 35, 4-(((6aR,7S,10R)-2-(3-amino-8-ethynyl-7-fluoronaphthalen-1-yl)-1-fluoro-13-(((2R,7aS)-2-fluorotetrahydro-1H-pyrrolizin-7a(5H)-yl)methoxy)-5,6,6a,7,8,9,10,11-octahydro-4H-3,11a,12,14,15-pentaaza-7,10-methanocyclohepta[4,5]cycloocta[1,2,3-de]naphthalen-15-yl)methyl)-5-propyl-1,3-dioxol-2-one]",EC50,[1],0.46 nM
same,Rat Parent % F,[2]; 15 mg/kg,5%
same,Rat Parent AUC,[2]; 15 mg/kg,0.27 µM·h
"C#Cc1c(F)ccc2cc(N)cc(-c3nc4c5c(nc(OC[C@@]67CCCN6C[C@H](F)C7)nc5c3F)N3C[C@H]5CC[C@@H]([C@H]3CCC4)N5Cc3oc(=O)oc3CCCCCC)c12 [Example 36, 4-(((6aR,7S,10R)-2-(3-amino-8-ethynyl-7-fluoronaphthalen-1-yl)-1-fluoro-13-(((2R,7aS)-2-fluorotetrahydro-1H-pyrrolizin-7a(5H)-yl)methoxy)-5,6,6a,7,8,9,10,11-octahydro-4H-3,11a,12,14,15-pentaaza-7,10-methanocyclohepta[4,5]cycloocta[1,2,3-de]naphthalen-15-yl)methyl)-5-hexyl-1,3-dioxol-2-one]",EC50,[1],0.49 nM
same,Rat Parent % F,[2]; 7.5 mg/kg,1.9%
same,Rat Parent AUC,[2]; 7.5 mg/kg,0.052 µM·h
"C#Cc1c(F)ccc2cc(O)cc(-c3nc4c5c(nc(OC[C@@]67CCCN6C[C@H](F)C7)nc5c3F)N3C[C@H]5CC[C@@H]([C@@H]3[C@H]3CCC[C@@H]43)N5Cc3oc(=O)oc3C)c12 [Example 42, 4-(((3aS,3bS,4S,7R,14bR)-13-(8-ethynyl-7-fluoro-3-hydroxynaphthalen-1-yl)-12-fluoro-10-(((2R,7aS)-2-fluorotetrahydro-1H-pyrrolizin-7a(5H)-yl)methoxy)-2,3,3a,3b,4,5,6,7,8,14b-decahydro-1H-8a,9,11,14,15-pentaaza-4,7-methanocyclopenta[d]naphtho[1,8-ab]heptalen-15-yl)methyl)-5-methyl-1,3-dioxol-2-one]",EC50,[1],1.7 nM
same,Rat Parent % F,[2]; 7.5 mg/kg,0.3%
same,Rat Parent AUC,[2]; 7.5 mg/kg,0.2 µM·h
"C#Cc1c(F)ccc2cc(N)cc(-c3nc4c5c(nc(OC[C@@]67CCCN6C[C@H](F)C7)nc5c3F)N3C[C@H]5CC[C@@H]([C@H]3CCC4)N5Cc3oc(=O)oc3C(C)C)c12 [Example 80, 4-(((6aR,7S,10R)-2-(3-amino-8-ethynyl-7-fluoronaphthalen-1-yl)-1-fluoro-13-(((2R,7aS)-2-fluorotetrahydro-1H-pyrrolizin-7a(5H)-yl)methoxy)-5,6,6a,7,8,9,10,11-octahydro-4H-3,11a,12,14,15-pentaaza-7,10-methanocyclohepta[4,5]cycloocta[1,2,3-de]naphthalen-15-yl)methyl)-5-isopropyl-1,3-dioxol-2-one]",EC50,[1],0.37 nM
same,Rat Parent % F,[2]; 7.5 mg/kg,2.1%
same,Rat Parent AUC,[2]; 7.5 mg/kg,0.057 µM·h
"C#Cc1c(F)ccc2cc(N)cc(-c3nc4c5c(nc(OC[C@@]67CCCN6C[C@H](F)C7)nc5c3F)N3C[C@H]5CC[C@@H]([C@H]3CCC4)N5Cc3oc(=O)oc3C(C)(C)C)c12 [Example 81, 4-(((6aR,7S,10R)-2-(3-amino-8-ethynyl-7-fluoronaphthalen-1-yl)-1-fluoro-13-(((2R,7aS)-2-fluorotetrahydro-1H-pyrrolizin-7a(5H)-yl)methoxy)-5,6,6a,7,8,9,10,11-octahydro-4H-3,11a,12,14,15-pentaaza-7,10-methanocyclohepta[4,5]cycloocta[1,2,3-de]naphthalen-15-yl)methyl)-5-(tert-butyl)-1,3-dioxol-2-one]",EC50,[1],0.63 nM
same,Rat Parent % F,[2]; 7.5 mg/kg,0.4%
same,Rat Parent AUC,[2]; 7.5 mg/kg,0.011 µM·h

# Reference: US12448400B2, “KRAS G12D modulating compounds” (priority 2023, dated 2025)
